Earlier results on one compound are cited in patent publication US9399025B2, “Modified release dosage forms of skeletal muscle relaxants” (APTALIS PHARMATECH, INC., priority 2003, dated 2016).

Molecules are shown by their SMILES.

On to `CN(C)CCC=C1c2ccccc2C=Cc2ccccc21` [Cyclobenzaprine], for which the Elimination half-life result (after oral administration) is “one to three”. Further, for the setting “oral”, the “Absorption after oral administration” value was “well absorbed”.
